Structures are written as SMILES.

This data set in a line: In vitro liver microsomal stability assay. Conditions: human liver microsomes 0.5 mg per mL, NADPH 2 mM, pH 7.4, 1 uM compound, 37° C.; relative to d0 (Example 1).
Method: In Vitro Liver Microsomal Stability Assay
Human liver microsomal stability assays were conducted at 0.5 mg per mL liver microsome protein with NADPH (2 mM, pH 7.4).
Reactions were initiated with the addition of NADPH cofactor and were stopped at 0, 5, 15, 20 or 30 min after cofactor addition with stop reagent, acetonitrile. After quenching, plates containing samples were vibrated for 10 min (600 rpm/min) and then centrifuged at 5594 g for 15 min. Supernatant fractions were analyzed by LC-MS/MS to determine the percent remaining and estimate the degradation half-life of the test compounds.
With `COc1ccc(CCNCC(O)COc2cccc(C)c2)cc1OC` (stereo not shown) [Example 1, [2-(3,4-dimethoxyphenyl)ethyl][2-hydroxy-3-(3-methylphenoxy)propyl]amine, reference compound], the “Clearance % change over d0” value worked out at 0.00% and the “Half-life % change over d0” value amounted to 0.00%.

As to `[2H]C([2H])([2H])Oc1ccc(CCNCC(O)COc2cccc(C)c2)cc1OC([2H])([2H])[2H]` (stereo not shown) [Example 2, [2-[3,4-bis(^2H6)methoxyphenyl]ethyl][2-hydroxy-3-(3-methylphenoxy)propyl]amine], the “Clearance % change over d0” value was determined as 1.68% and the “Half-life % change over d0” value was −1.65%.

As for `[2H]C([2H])([2H])c1cccc(OCC(O)CNCCc2ccc(OC)c(OC)c2)c1` (stereo not shown) [Example 3, [2-(3,4-dimethoxyphenyl)ethyl]([2-hydroxy-3-[3-(2H3)methylphenoxy]propyl])amine], the “Clearance % change over d0” value is recorded as −4.71% and the “Half-life % change over d0” value amounted to 4.95%.

As for `[2H]C([2H])([2H])Oc1ccc(CCNCC(O)COc2cccc(C([2H])([2H])[2H])c2)cc1OC([2H])([2H])[2H]` (stereo not shown) [Example 4, [2-[3,4-bis(^2H6)methoxyphenyl]ethyl]([2-hydroxy-3-[3-(^2H3)methylphenoxy]propyl])amine], the “Clearance % change over d0” value is reported as −21.15% and the “Half-life % change over d0” value stood at 26.83%.

`[2H]C([2H])([2H])Oc1ccc(CCNC([2H])([2H])C([2H])(O)C([2H])([2H])Oc2cccc(C)c2)cc1OC([2H])([2H])[2H]` (stereo not shown) [Example 5, 1-([2-[3,4-bis(^2H6)methoxyphenyl]ethyl]amino)-3-(3-methylphenoxy)(^2H5) propan-2-ol]: the “Clearance % change over d0” value was determined as 0.85% and the “Half-life % change over d0” value is recorded as −0.84%.

The record behind these values is patent US10722479B2, “Dimethoxyphenyl inhibitors of vesicular monoamine transporter 2” (AUSPEX PHARMACEUTICALS, INC., priority 2015, dated 2020).
